Test results: US8722849B2, “Polypeptides” (Novo Nordisk A/S, priority 2011, dated 2014)
Converted amounts (≈) assume the structure as drawn. Where two headings read alike, the source gives them in different places. Starred links: 1 amine or outer side, 2 acyl side, 3 side chain; linkers in the order of their positions; H or OH if unused. Positions of bridges follow the written chain, without caps; N, C: chain ends. Residues, ends and D or L forms follow the SMILES beside them. *: point of attachment. C20 diacid = O=C(O)CCCCCCCCCCCCCCCCCCC(=O)*; γGlu = O=C(O)[C@H](CCC(=O)[*:2])N[*:1]

Legend:
[1] = target: T1, human calcitonin receptor (Homo sapiens, UniProt P30988); test: Assay (II)a functional CRE-luciferase assay, human calcitonin receptor; assay type: cell-based; settings: Table 7; human calcitonin (CTa) receptor
T1 construct: expressed in transfected cells; host or cells: BHK570
T1 sequence (P30988 25-474): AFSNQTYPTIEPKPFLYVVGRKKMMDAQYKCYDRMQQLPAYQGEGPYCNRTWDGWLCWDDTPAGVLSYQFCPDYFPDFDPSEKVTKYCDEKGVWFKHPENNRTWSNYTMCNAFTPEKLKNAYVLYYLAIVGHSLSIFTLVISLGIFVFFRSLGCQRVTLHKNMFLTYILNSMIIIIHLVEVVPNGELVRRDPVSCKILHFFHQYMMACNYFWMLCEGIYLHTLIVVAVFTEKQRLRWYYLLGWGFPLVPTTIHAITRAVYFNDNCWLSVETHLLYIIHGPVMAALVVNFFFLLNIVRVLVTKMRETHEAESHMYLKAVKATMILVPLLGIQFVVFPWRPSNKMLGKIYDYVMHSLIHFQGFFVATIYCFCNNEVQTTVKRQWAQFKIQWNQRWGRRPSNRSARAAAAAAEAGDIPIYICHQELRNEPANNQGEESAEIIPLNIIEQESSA

[2] = Assay (IV) determination of solubility; assay type: physicochemical
Procedure, shortened: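 Solubility is measured across pH 3.0–8.0 by mixing a ~500 nmol/ml aqueous polypeptide stock 1:1 with 100 mM glycylglycine or bistrispropane buffers. Samples stand 18 hours at room temperature, then are centrifuged and the soluble concentration is determined by HPLC.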

[3] = target: T2, human amylin receptor (amylin 3(a) receptor: human calcitonin receptor + RAMP-3) (Homo sapiens, UniProt O60896+P30988); test: Assay (II)a functional CRE-luciferase assay, human amylin receptor; assay type: cell-based; settings: Table 2; BHK amylin 3(a)-receptor/CRE-luc cells
T2 construct: expressed in transfected cells; host or cells: BHK570
T2 sequence (P30988 25-474): T1 sequence (P30988 25-474)
T2 sequence (O60896 24-148 partner): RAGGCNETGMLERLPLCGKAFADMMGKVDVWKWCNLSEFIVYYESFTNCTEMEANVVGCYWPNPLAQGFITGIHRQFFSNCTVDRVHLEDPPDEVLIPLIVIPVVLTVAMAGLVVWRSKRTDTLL

[4] = Assay (III) ThT fibrillation assay for physical stability; assay type: physicochemical
Procedure, shortened: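 Freshly prepared formulations, pH-adjusted, with 1 μM ThT; four or eight replicates incubated at 37 °C under 960 rpm orbital shaking. Fluorescence (ex 444/em 485 nm) read every 20 min; […]. Peptide concentration measured by RP-HPLC before and after the run.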

[5] = bistrispropane buffer, pH 6, pH 6.0, read-out: Solubility pH 6.0
[6] = bistrispropane buffer, pH 6.5, pH 6.5, read-out: Solubility pH 6.5
[7] = bistrispropane buffer, pH 7, pH 7.0, read-out: Solubility pH 7.0
[8] = bistrispropane buffer, pH 7.5, pH 7.5, read-out: Solubility pH 7.5
[9] = bistrispropane buffer, pH 8, pH 8.0, read-out: Solubility pH 8.0
[10] = glycylglycine buffer, pH 3, pH 3.0, read-out: Solubility pH 3.0
[11] = glycylglycine buffer, pH 4, pH 4.0, 18 hours at room temperature, Table 2, read-out: Solubility pH 4.0
[12] = glycylglycine buffer, pH 4, pH 4.0, read-out: Solubility pH 4.0
[13] = glycylglycine buffer, pH 5, pH 5.0, read-out: Solubility pH 5.0
[14] = bistrispropane buffer, pH 7, pH 7.0, 18 hours at room temperature, Table 3, read-out: Solubility pH 7.0

EC50 [1] [pM]	solubility at 18 h [2, 5] [µM]	solubility at 18 h [2, 6] [µM]	solubility at 18 h [2, 7] [µM]	solubility at 18 h [2, 8] [µM]	solubility at 18 h [2, 9] [µM]	solubility at 18 h [2, 10] [µM]	solubility at 18 h [2, 11] [µM]	solubility at 18 h [2, 12] [µM]	solubility at 18 h [2, 13] [µM]	EC50 [3] [pM]	ThT pH 4.0 lag time ([4]; ThT fibrillation assay) [h]	ThT pH 4.0 lag time (h) ([4]; ThT fibrillation assay)	solubility at 18 h [2, 14] [µM]	solubility at 18 h ([2]; bistrispropane buffer, pH 7, pH 7.0, Table 8, read-out: Solubility pH 7.0) [µM]	ThT pH 4.0 lag time ([4]; Table 8) [h]	Compound
110	185 (≈ 834 µg/mL)	23 (≈ 104 µg/mL)	5 (≈ 22.5 µg/mL)	33 (≈ 149 µg/mL)	94 (≈ 424 µg/mL)	> 200	> 200	> 200	> 200	66	>45	>45	–	–	–	CC[C@H](C)[C@H](NC(=O)[C@@H]1CCCN1C(=O)CNC(=O)[C@H](Cc1ccccc1)NC(=O)[C@H](CC(N)=O)NC(=O)[C@H](CC(N)=O)NC(=O)[C@H](CO)NC(=O)[C@H](CO)NC(=O)[C@H](CCCNC(=N)N)NC(=O)[C@H](Cc1c[nH]cn1)NC(=O)[C@H](CC(C)C)NC(=O)[C@H](Cc1ccccc1)NC(=O)[C@H](CCC(=O)O)NC(=O)[C@H](C)NC(=O)[C@H](CC(C)C)NC(=O)[C@H](CCCNC(=N)N)NC(=O)[C@H](CCC(N)=O)NC(=O)[C@@H](NC(=O)[C@H](C)NC(=O)[C@@H]1CSSC[C@H](NC(=O)[C@H](Cc2c[nH]cn2)NC(=O)CC[C@H](NC(=O)CCCCCCCCCCCCCCCCCCC(=O)O)C(=O)O)C(=O)N[C@@H](CC(N)=O)C(=O)N[C@@H]([C@@H](C)O)C(=O)N[C@@H](C)C(=O)N[C@@H]([C@@H](C)O)C(=O)N1)[C@@H](C)O)C(=O)N[C@@H](CC(C)C)C(=O)N1CCC[C@H]1C(=O)N1CCC[C@H]1C(=O)N[C@H](C(=O)N[C@@H](CC(N)=O)C(=O)N[C@H](C(=O)NCC(=O)N[C@@H](CO)C(=O)N[C@@H](Cc1c[nH]cn1)C(=O)N[C@H](C(=O)N[C@@H](Cc1ccc(O)cc1)C(N)=O)[C@@H](C)O)C(C)C)[C@@H](C)O [Example 77, N-alpha-[(S)-4-Carboxy-4-(19-carboxynonadecanoylamino)butyryl]-[His1,Glu14,His17,Arg18,His35]-pramlintide] ({C20 diacid-γGlu}-HCNTATCATQRLAEFLHRSSNNFGPILPPTNVGSHTY-NH2; disulfide 2-7 (inferred); C-terminus assumed)
72.5	> 200	> 200	> 200	> 200	> 200	> 200	> 200	> 200	> 200	84.5	–	6.3	> 200	–	–	CC[C@H](C)[C@H](NC(=O)[C@@H]1CCCN1C(=O)CNC(=O)[C@H](Cc1ccccc1)NC(=O)[C@H](CC(N)=O)NC(=O)[C@H](CC(N)=O)NC(=O)[C@H](CO)NC(=O)[C@H](CO)NC(=O)[C@H](Cc1c[nH]cn1)NC(=O)[C@@H](NC(=O)[C@H](CC(C)C)NC(=O)[C@H](Cc1ccccc1)NC(=O)[C@H](CCC(=O)O)NC(=O)[C@H](C)NC(=O)[C@H](CC(C)C)NC(=O)[C@H](CCCNC(=N)N)NC(=O)[C@H](CCC(N)=O)NC(=O)[C@@H](NC(=O)[C@H](C)NC(=O)[C@@H]1CSSC[C@H](NC(=O)[C@H](Cc2c[nH]cn2)NC(=O)CC[C@H](NC(=O)CCCCCCCCCCCCCCCCCCC(=O)O)C(=O)O)C(=O)N[C@@H](CC(N)=O)C(=O)N[C@@H]([C@@H](C)O)C(=O)N[C@@H](C)C(=O)N[C@@H]([C@@H](C)O)C(=O)N1)[C@@H](C)O)C(C)C)C(=O)N[C@@H](CC(C)C)C(=O)N1CCC[C@H]1C(=O)N1CCC[C@H]1C(=O)N[C@H](C(=O)N[C@@H](CC(N)=O)C(=O)N[C@H](C(=O)NCC(=O)N[C@@H](CO)C(=O)N[C@@H](CC(N)=O)C(=O)N[C@H](C(=O)N1CCC[C@H]1C(N)=O)[C@@H](C)O)C(C)C)[C@@H](C)O [Example 109, N-alpha-[(S)-4-Carboxy-4-(19-carboxynonadecanoylamino)butyryl]-[His1,Glu14,Pro37]-pramlintide] ({C20 diacid-γGlu}-HCNTATCATQRLAEFLVHSSNNFGPILPPTNVGSNTP-NH2; disulfide 2-7 (inferred); C-terminus assumed)
286	> 200	193 (≈ 840 µg/mL)	> 200	> 200	> 200	> 200	> 200	> 200	> 200	366	28	28	> 200	> 200	28	CC[C@H](C)[C@H](NC(=O)[C@@H]1CCCN1C(=O)CNC(=O)[C@H](Cc1ccccc1)NC(=O)[C@H](CC(N)=O)NC(=O)[C@H](CC(N)=O)NC(=O)[C@H](CO)NC(=O)[C@H](CO)NC(=O)[C@H](Cc1c[nH]cn1)NC(=O)[C@H](Cc1c[nH]cn1)NC(=O)[C@H](CC(C)C)NC(=O)[C@H](Cc1ccccc1)NC(=O)[C@H](CCC(=O)O)NC(=O)[C@H](C)NC(=O)[C@H](CC(C)C)NC(=O)[C@H](CCCNC(=N)N)NC(=O)[C@H](CCC(N)=O)NC(=O)[C@@H](NC(=O)[C@H](C)NC(=O)[C@@H]1CSSC[C@H](NC(=O)CC[C@H](NC(=O)CCCCCCCCCCCCCCCCCCC(=O)O)C(=O)O)C(=O)N[C@@H](CC(N)=O)C(=O)N[C@@H]([C@@H](C)O)C(=O)N[C@@H](C)C(=O)N[C@@H]([C@@H](C)O)C(=O)N1)[C@@H](C)O)C(=O)N[C@@H](CC(C)C)C(=O)N1CCC[C@H]1C(=O)N1CCC[C@H]1C(=O)N[C@H](C(=O)N[C@@H](CC(N)=O)C(=O)N[C@H](C(=O)NCC(=O)N[C@@H](CO)C(=O)N[C@@H](Cc1c[nH]cn1)C(=O)N[C@H](C(=O)N[C@@H](Cc1ccc(O)cc1)C(N)=O)[C@@H](C)O)C(C)C)[C@@H](C)O [Example 75, N-alpha-[(S)-4-Carboxy-4-(19-carboxynonadecanoylamino)butyryl]-[des1,Glu14,His17,His35]-pramlintide] ({C20 diacid-γGlu}-CNTATCATQRLAEFLHHSSNNFGPILPPTNVGSHTY-NH2; disulfide 1-6 (inferred))
